Test results: patent US6693100B1, “Pharmaceutical compositions for treating psoriasis” (priority 1999, dated 2004)

Experiments:
[1] = human, in vivo
Procedure: (§1) The efficacy and tolerability of dexrazoxane in patients with refractory psoriasis was assessed in a clinical study.
(§2) After screening, eligible patients received 500 mg of Cardioxane® by intravenous infusion on each of two consecutive days. They were reviewed 7 and 14 days after the first day of treatment. The patients received the second cycle of treatment, which consisted of either 500 mg Cardioxane® by intravenous infusion, on each of two consecutive days (days 15 and 16, in this case), if a complete response had occurred, or 1000 mg Cardioxane® by intravenous infusion, on each of two consecutive days (days 15 and 16, in this case), if an incomplete response had occurred.
(§3) A third cycle of treatment was given after the same interval (days 29 and 30, in this case).
This neutropenia disappeared after another week, and the counts were normal from then on. All other patients had normal white blood cell counts. The assessment of toxicity was according to the WHO criteria: grade 0 (non-toxic, a count of more than 4×10E9 leukocytes per liter), grade 1 (mild) to grade 4 (most severe).

[2] = test system: refractory psoriasis; assay: Clinical study of efficacy of dexrazoxane in patients with refractory psoriasis, Psoriasis Area and Severity Index (Example 4); assay type: in vivo, human
Procedure: as §1, §2, §3
The primary efficacy parameter was the percentage reduction in skin area and severity affected by psoriasis, as determined by the standardised assessment of the Psoriasis Area and Severity Index (PASI).
Seven patients have been enrolled in the study and all patients have completed a follow-up period of two weeks. At the beginning of the treatment, the PASI-scores ranged between 23.1 and 44.1, with a mean score of 31.9. […] At the end of the third treatment cycle, the PASI-scores ranged between 3.4 and 29.7, with a mean score of 11.4.

[3] = test system: psoriasis; assay: Clinical trial case reports: Cardioxane intravenous drip infusion in individual psoriasis patients (Examples 1-3); assay type: in vivo, human
Excerpt: The disease started after mental stress (loss of near person) with a rash on the hairy part of the head. From the very onset of the disease the patient received intensive treatment with vitamins B12, B6, B2, and calcium. They had artificial hyperthermia with pyrogenal injections, methotrexate, various ointments (e.g. salicylic ointment) under a dermatologist's observation at a specialised clinic. In spite of the treatment the psoriatic rash was spreading over the trunk, upper and lower extremities and it was accompanied by a marked general itch. The patient had practically no remissions. Concurrent diseases were grade II hypertension and chronic cholecystopancreatitis.
At the first examination the patient complained about itching all over the body (resulting in insomnia) and pain in the large joints (mainly knees). The skin on the back, buttocks, chest and arms was covered with a erythematous papular and pustular rash with a white coating (desquamation). A similar though less intense rash was seen on the legs. The patient's general status, the haematological and biochemical profiles were within normal.
On the first and the second day of the treatment cycle the patient received the first doses of Cardioxane® (dexrazoxane.HCl) at 500 mg each day by intravenous drip infusion. […] The itch practically disappeared after the next dose of Cardioxane® therapy at 1000 mg on day 16. […] The patient slept well for the first time in a long disease period. The effect was still preserved at the examination on day 29 and day 30 when the patient was given the last two injections of Cardioxane® at 1500 mg each.
This patient had suffered from generalised psoriasis for 25 years. The rash first appeared on the head and the right upper limb to spread over the trunk and upper limbs later. The patient had received therapies similar to the patient described in Example 1. In addition they received UV therapy, peloids, sulfurated hydrogen baths, but without lasting effect. The patient had no concurrent illness except asthenia, sinus arrhythmia and left ventricular hypertrophy. The skin on the back, lumbar region and shoulders was covered with merged erythematous papular, bullar and desquamating lesions. The rash on the lateral chest walls and on the lower limbs was mainly erythematous and less marked. The skin lesions covered about 50% of the body surface.
The patient was given 6 intravenous drip injections with Cardioxane® according to the following schedule:
On day 1 and day 2 each 500 mg Cardioxane®,
on day 15 and day 16 each 1000 mg Cardioxane®,
and on day 29 and day 30 each 1500 mg Cardioxane®.
The psoriatic rash appeared on the hairy part of the head and neck to spread further over the body. The patient received insolation with but a temporary effect. The patient had had 4 hospitalisations to receive therapy with vitamins, calcium, and various ointments.
At the first examination on day 1 the patient presented with continuous erythematous papular psoriatic rash with desquamation on the front abdominal wall (below the submammal fold), the inguioileac, the lumbosacral, the gluteal regions and the lower limbs, severe itch, and scraping tubular breathing (asthmatic bronchitis). Of note was also a marked increase in the eosinophile count.
The patient received 6 intravenous drip injections of Cardioxane® according to the protocol given in Example 2. […] The lower half of the abdomen as well as the upper gluteal quadrants were practically free of rash.

[4] = pH of reconstituted and diluted Cardioxane solution for infusion; assay type: physicochemical
Procedure: Cardioxane® is available in 36 ml brown glass vials. Each vial contains 500 mg lyophilised active substance, the hydrochloric acid salt of dexrazoxane. For reconstitution the contents of each vial is dissolved in 25 ml sterile water for injection. The contents will dissolve within a few minutes under gentle agitation. The pH of the resulting solution is approx. pH 1.6.
For infusion the solution needs to be further diluted. Preferred are sodium lactate UP (0.16M) or Ringer-Lactate BP for infusion. Both solutions give an infusion fluid with an acceptable pH.

[5] = test system: psoriasis; details: cited from earlier work
[6] = test system: refractory psoriasis; assay: Separate longer study of three patients with refractory psoriasis; assay type: in vivo, human
Excerpt: This patient, who previously suffered distressing refractory psoriasis, can be treated with conventional emollients. Dexrazoxane therefore has the potential to provide remarkable long term relief from refractory psoriasis and a low level of side effects.

[7] = at 11 weeks after the start of the therapy
[8] = Example 3 patient, examination on day 30
[9] = British Journal of Dermatology (1980) 102, 307
[10] = patients of the clinical trial (general statement)

With `CC(CN1CC(=O)NC(=O)C1)N1CC(=O)NC(=O)C1` (stereo not drawn) [Cardioxane] the “leukocyte count in the patient with leukopenia” value [1] was “approximately 3×10E9 cells per liter”, the leukopenia incidence [1] was “only one was diagnosed with mild, reversible leukopenia” and the serious adverse events [1] was “no serious adverse events were reported”. For the same compound, the “toxicity grade according to World Health Organisation criteria” value [1] was “grade I”, the “vomiting, nausea, or diarrhoea” value [1] was “No cases of vomiting, nausea, or diarrhoea were recorded” and the “maximum reduction in PASI” value [2, 7] was 88%. For the same compound, the “mean reduction in PASI” value [2, 7] was 65%, the “relief of symptoms associated with psoriatic arthritis” value ([2]; compared to treatment with cyclosporine A used previously in the clinic) was “better and faster relief” and the remission ([2]; one month after the last injection) was “most of the patients are still in remission”. The PASI score ([2]; patient 1/HH, visit v1 (start of treatment)) was 23.1, the PASI score ([2]; patient 1/HH, visit v4) was 11.3 and the PASI score ([2]; patient 1/HH, visit v7) was 7.7. The PASI score ([2]; patient 1/HH, visit v9) was 6.5, the PASI score ([2]; patient 1/HH, visit v10) was 6.5 and the PASI score ([2]; patient 1/HH, visit v11) was 5.6. For the same compound, the PASI score ([2]; patient 2/MR, visit v1 (start of treatment)) was 43.6, the PASI score ([2]; patient 2/MR, visit v4) was 36.3 and the PASI score ([2]; patient 2/MR, visit v7) was 23.1. It also gave a PASI score ([2]; patient 2/MR, visit v9) of 15.6, a PASI score ([2]; patient 2/MR, visit v10) of 12.3 and a PASI score ([2]; patient 2/MR, visit v11) of 14.0. For the same compound, the PASI score ([2]; patient 3/MZ, visit v1 (start of treatment)) was 29.8, the PASI score ([2]; patient 3/MZ, visit v4) was 18.4 and the PASI score ([2]; patient 3/MZ, visit v7) was 11.6. The PASI score ([2]; patient 3/MZ, visit v9) was 9.7, the PASI score ([2]; patient 3/MZ, visit v10) was 7.1 and the PASI score ([2]; patient 3/MZ, visit v11) was 6.5. For the same compound, the PASI score ([2]; patient 4/PH, visit v1 (start of treatment)) was 27.0, the PASI score ([2]; patient 4/PH, visit v4) was 18.6 and the PASI score ([2]; patient 4/PH, visit v7) was 13.5. It also gave a PASI score ([2]; patient 4/PH, visit v9) of 10.8, a PASI score ([2]; patient 4/PH, visit v10) of 12.0 and a PASI score ([2]; patient 4/PH, visit v11) of 5.2. For the same compound, the PASI score ([2]; patient 5/PZ, visit v1 (start of treatment)) was 29.1, the PASI score ([2]; patient 5/PZ, visit v4) was 16.9 and the PASI score ([2]; patient 5/PZ, visit v7) was 9.9. The PASI score ([2]; patient 5/PZ, visit v9) was 9.3, the PASI score ([2]; patient 5/PZ, visit v10) was 7.8 and the PASI score ([2]; patient 5/PZ, visit v11) was 3.4. It also gave a PASI score ([2]; patient 6/FJ, visit v1 (start of treatment)) of 44.1, a PASI score ([2]; patient 6/FJ, visit v4) of 24.8 and a PASI score ([2]; patient 6/FJ, visit v7) of 20.3. The PASI score ([2]; patient 6/FJ, visit v9) was 15.6, the PASI score ([2]; patient 6/FJ, visit v10) was 15.6 and the PASI score ([2]; patient 6/FJ, visit v11) was 15.3. It also gave a PASI score ([2]; patient 7/DJ, visit v1 (start of treatment)) of 26.6, a PASI score ([2]; patient 7/DJ, visit v4) of 23.6 and a PASI score ([2]; patient 7/DJ, visit v7) of 23.0. It also gave a PASI score ([2]; patient 7/DJ, visit v9) of 21.8, a PASI score ([2]; patient 7/DJ, visit v10) of 28.5 and a PASI score ([2]; patient 7/DJ, visit v11) of 29.7. For the same compound, the “mean PASI score at the end of the third treatment cycle” value ([2]; seven patients, end of third treatment cycle) was 11.4, the “response to the treatment” value ([2]; seven patients, one patient absolutely resistant) was “Most of the patients did respond to the treatment” and the arthralgia ([3]; Example 1 patient, after 1000 mg dose on day 16) was “complete disappearance of anthralgia”. For the same compound, the adverse events ([3]; Example 1 patient, after any of the injections (500, 1000, 1500 mg)) was “no adverse events”, the itch ([3]; Example 1 patient, 500 mg i.v. on days 1 and 2) was “amelioration of itch several hours after the first” and the side effects ([3]; Example 2 patient, 6 i.v. drip injections 500-1500 mg) was “no side effects”. The erythema ([3]; Example 2 patient, examination on day 15 and day 29) was “mild amelioration of erythema on the back”, the skin itch ([3]; Example 3 patient, at 2 or 3 days after the first injection) was “complete disappearance of skin itch” and the adverse events ([3]; Example 3 patient, examination on day 15) was “no adverse events”. For the same compound, the adverse events [3, 8] was “No adverse events were reported”, the “complete regression of the rash” value [3, 8] was “about 80%” and the “pH of the resulting solution” value ([4]; 500 mg vial dissolved in 25 ml sterile water for injection) was roughly 1.6. It also gave a pH ([4]; 4 reconstituted vials diluted with 100 ml Ringer-Lactate BP, total 200 ml) of 2.14, a pH ([4]; 4 reconstituted vials diluted with 100 ml Sodium lactate UP (0.16 M), total 200 ml) of 3.80 and a pH ([4]; 4 reconstituted vials diluted with 300 ml Ringer-Lactate BP, total 400 ml) of 2.85. The pH ([4]; 4 reconstituted vials diluted with 300 ml Sodium lactate UP (0.16 M), total 400 ml) was 4.47, the pH ([4]; 4 reconstituted vials diluted with 400 ml Ringer-Lactate BP, total 500 ml) was 3.19 and the pH ([4]; 4 reconstituted vials diluted with 500 ml Ringer-Lactate BP, total 600 ml) was 3.45. For the same compound, the pH ([4]; 4 reconstituted vials diluted with 500 ml Sodium lactate UP (0.16 M), total 600 ml) was 4.66.
For `CC(CN1CC(=O)NC(=O)C1)N1CC(=O)NC(=O)C1` (racemic) [razoxane, 1,2-bis(3,5-dioxopiperazin-1-yl)-propane], the efficacy in psoriasis [5, 9] is given as “relatively good efficacy”, the “tolerability in psoriasis patients” value [5, 9] is given as “good tolerability” and the “most frequently seen side effect” value ([5]; Horton and Wells, British Journal of Dermatology (1983) 109, 669-673) is given as “neutropenia”.
For `CC(CN1CC(=O)NC(=O)C1)N1CC(=O)NC(=O)C1` (stereo not drawn) [dexrazoxane, d-isomer of 1,2-bis(3,5-dioxopiperazin-1-yl)-propane], the serious side effects [1] was “No serious side effects have been reported”, the “duration of relief from refractory psoriasis” value ([6]; some patients (summary statement)) was “up to at least one year” and the “long term freedom from lesions and symptoms” value ([6]; three patients with refractory psoriasis, after one year) was “one patient is still relatively free of lesions and symptoms after one year”. For the same compound, the itch [3, 10] was “diminished several hours after the first administration” and the “regression of the skin lesions” value [3, 10] was 25-30%.
